# Where two headings read alike, the source gives them in different places.
# Key:
# [1] = 3 weeks slurry, gravimetric
# Procedure: After approximately 24 hours, solids were isolated by centrifugation using eppendorf centrifuge tubes equipped with a 0.45 μm nylon filter. […] Equilibrium solubility of solids isolated were determined gravimetrically as follows. Measured aliquots of mother liquor solutions from the 3-week slurries were place in pre-weighed aluminum TGA pans. Subsequently, solvents were evaporated under ambient conditions or using vacuum. Remaining solids were weighed. • (a) Experiments were conducted for a total of ˜1 week and ˜3 weeks, both with solvent replacement after ˜1 day of slurrying. Solvent ratios (v/v) and duration of experiments are approximate.
# [2] = Drying experiments on selected materials, solid form by XRPD; assay type: physicochemical
# Source text: Table 6 summarizes the drying conditions for selected materials. • (a) Temperature, RH, and duration of experiments are approximate.
# [3] = Procedure: Weighed samples of material were treated with aliquots of specified solvents at ambient temperature. Samples were typically sonicated between additions to facilitate dissolution. Complete dissolution was observed through visual inspection. Solubility was calculated based on the total amount of solvent added to achieve complete dissolution and may be greater than the value reported due to incremental solvent addition and the inherent kinetics of dissolution. If dissolution was not observed, values are reported as “less than”. If dissolution was observed upon the first addition of solvent, values are reported as “greater than”.
# • (a) Solubility estimated using solvent addition method via visual assessment of samples. Values are rounded to nearest whole number and reported as “<” if dissolution was not observed. • (b) non-cGMP samples.
compound,measurement,setting,value
"Br.Br.CCC[C@H](N[C@H]1CCc2cc(F)cc(F)c2C1)C(=O)Nc1cn(C(C)(C)CNCC(C)(C)C)cn1 [Form A, (S)-2-(((S)-6,8-difluoro-1,2,3,4-tetrahydronaphthalen-2-yl)amino)-N-(1-(2-methyl-1-(neopentylamino)propan-2-yl)-1H-imidazol-4-yl)pentanamide]",Solubility (b),"[1]; DMF/ACN (65/35), ambient",10 mg/mL
same,Solubility (b),"[1]; DMF/IPA (60/40), ambient",13 mg/mL
same,Solubility (b),"[1]; DMF/MIBK (85/15), ambient",19 mg/mL
same,Solubility (b),"[1]; Dioxane/H2O (70/30), ambient",24 mg/mL
same,Solubility (b),"[1]; EtOH/H2O (60/40), ambient",36 mg/mL
same,Solubility (b),"[1]; H2O, ambient",14 mg/mL
same,Solubility (b),"[1]; MEK/DMF (20/80), ambient",17 mg/mL
same,Solubility (b),"[1]; MeOH (anhydrous), 2-8° C. (cold room)",13 mg/mL
same,Solubility (b),"[1]; MeOH/Acetone (anhydrous) (50/50), ambient",7 mg/mL
same,Solubility (b),"[1]; MeOH/EtOAc (anhydrous) (70/30), ambient",6 mg/mL
same,Solubility (b),"[1]; MeOH/H2O (20/80), ambient",17 mg/mL
same,Solubility (b),"[1]; NMP/Acetone (anhydrous) (85/15), ambient",36 mg/mL
same,Solubility (b),"[1]; PG, ambient",8 mg/mL
same,Solubility (b),"[1]; THF/H2O (85/15), ambient",25 mg/mL
"Br.Br.CCC[C@H](N[C@H]1CCc2cc(F)cc(F)c2C1)C(=O)Nc1cn(C(C)(C)CNCC(C)(C)C)cn1 [Form D, (S)-2-(((S)-6,8-difluoro-1,2,3,4-tetrahydronaphthalen-2-yl)amino)-N-(1-(2-methyl-1-(neopentylamino)propan-2-yl)-1H-imidazol-4-yl)pentanamide]",XRPD Results after drying,"[2]; Dried on P2O5, RT, 17 days, RH at prep.: 3%, RH at run: 43%, cell continues: selected peaks slightly shifted","Consistent with Form D,"
"Br.Br.CCC[C@H](N[C@H]1CCc2cc(F)cc(F)c2C1)C(=O)Nc1cn(C(C)(C)CNCC(C)(C)C)cn1 [Form F, (S)-2-(((S)-6,8-difluoro-1,2,3,4-tetrahydronaphthalen-2-yl)amino)-N-(1-(2-methyl-1-(neopentylamino)propan-2-yl)-1H-imidazol-4-yl)pentanamide]",XRPD Results after drying,"[2]; VO, 75° C., 1 day",Consistent with Form D
same,XRPD Results after drying,"[2]; VO, 77° C., 1 day",Consistent with Form F;
"Br.Br.CCC[C@H](N[C@H]1CCc2cc(F)cc(F)c2C1)C(=O)Nc1cn(C(C)(C)CNCC(C)(C)C)cn1 [dihydrobromide salt of Compound 1, dihydrobromide salt of (s)-2-(((s)-6,8-difluoro-1,2,3,4-tetrahydronaphthalen-2-yl)amino)-n-(1-(2-methyl-1-(neopentylamino)propan-2-yl)-1h-imidazol-4-yl)pentanamide]",Solubility Estimate (a),[3],<1 mg/mL
